Measured values: patent US11214803B2, “Modulators of YAP1 expression” (Ionis Pharmaceuticals, Inc., priority 2019, dated 2022)
Strand notation (5' to 3'): a small letter for the sugar, then the base; units joined by * are phosphorothioate-linked, units joined directly phosphodiester-linked; [ ] holds rarer units or linkages, { } end groups; capitals alone tell only the bases. k = constrained ethyl (cEt); [5mC] = 5-methylcytosine; d = 2'-deoxy (DNA)

test system: Yap1 mRNA; assay: Antisense inhibition of human Yap1 in A-431 cells by cEt gapmers, single dose (Example 2, RTS4814); format: cell-based; settings: A-431 cells, 5,000 cells per well, free uptake, 2,000 nM modified oligonucleotide, approx. 48 hours, RTS4814, normalized to RIBOGREEN; Table 4; asterisk (*) = targets amplicon region of primer probe set
In short: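 Each 16-nucleoside gapmer (ten-deoxy gap, three-cEt wings) is tested once at 2,000 nM in A-431 cells by free uptake. Yap1 mRNA after about 48 hours is measured by quantitative RT-PCR and expressed relative to untreated control.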

Substance | YAP1 (% UTC)
716544 (antisense kT*kA*k[5mC]*dT*dT*dA*dA*d[5mC]*dA*d[5mC]*dA*dG*d[5mC]*kA*kA*k[5mC]) [Compound 716544] | 71 % UTC
716439 (kG*kT*kA*dT*dT*dT*dA*dA*dT*dA*dT*d[5mC]*dA*kG*kA*kT; antisense) [Compound 716439] | 77 % UTC
716376 (k[5mC]*kG*kA*dA*dG*dA*dT*dG*d[5mC]*dT*dG*dA*dG*k[5mC]*kT*kG; antisense) [Compound 716376] | 35 % UTC
716511 (antisense kG*kA*kT*d[5mC]*dT*dT*d[5mC]*dT*dG*d[5mC]*dA*d[5mC]*dA*kT*kT*kA) [Compound 716511] | 51 % UTC

same assay, conditions: Table 5; A-431 cells, 5,000 cells per well, free uptake, 2,000 nM modified oligonucleotide, approx. 48 hours; RTS4814; normalized to RIBOGREEN; Yap1 mRNA relative to untreated control cells

Substance | YAP1 (% UTC)
716512 (antisense kA*k[5mC]*kT*d[5mC]*d[5mC]*dT*dT*d[5mC]*d[5mC]*dA*dA*dG*dT*kA*kG*k[5mC]) [Compound 716512] | 99 % UTC
716473 (k[5mC]*kT*kA*dT*dA*dA*dA*dG*d[5mC]*dT*dT*dA*dT*kT*kT*k[5mC]; antisense) [Compound 716473] | 104 % UTC
716527 (antisense kA*kG*kT*dA*d[5mC]*dA*dG*dA*dG*dG*dG*d[5mC]*dA*kT*k[5mC]*kG) [Compound 716527] | 64 % UTC
716500 (kA*kA*k[5mC]*dT*dT*d[5mC]*dT*dT*dA*d[5mC]*dT*dT*d[5mC]*k[5mC]*kA*kA; antisense) [Compound 716500] | 18 % UTC
716434 (kT*kA*kA*dA*dT*dG*d[5mC]*dT*dG*dT*dG*dA*d[5mC]*kA*kT*kG; antisense) [Compound 716434] | 44 % UTC

same assay, conditions: Table 6; A-431 cells, 5,000 cells per well, free uptake, 2,000 nM modified oligonucleotide, approx. 48 hours; RTS4814; normalized to RIBOGREEN; Yap1 mRNA relative to untreated control cells

Substance | YAP1 (% UTC)
716579 (kA*kT*kA*dG*dA*dG*dA*dT*dT*dT*dT*d[5mC]*d[5mC]*k[5mC]*kT*k[5mC]; antisense) [Compound 716579] | 84 % UTC
716519 (antisense kG*kT*kT*dT*dA*dT*dA*dA*dA*dG*dT*dT*d[5mC]*kT*k[5mC]*kT) [Compound 716519] | 57 % UTC

same assay, conditions: Table 18; A-431 cells, 5,000 cells per well, free uptake, 2,000 nM modified oligonucleotide, approx. 48 hours; RTS4814; normalized to RIBOGREEN; Yap1 mRNA as percent of untreated control

Substance | YAP1 (% UTC)
1074628 (antisense kG*k[5mC]*k[5mC]*dT*dG*dT*dT*dA*dT*dG*dA*dA*d[5mC]*k[5mC]*k[5mC]*kT) [Compound 1074628] | 5 % UTC

same assay, conditions: Table 19; A-431 cells, 5,000 cells per well, free uptake, 2,000 nM modified oligonucleotide, approx. 48 hours; RTS4814; normalized to RIBOGREEN; Yap1 mRNA as percent of untreated control

Substance | YAP1 (% UTC)
1074213 (antisense kG*kA*kG*dT*d[5mC]*dG*dG*dG*d[5mC]*dA*dG*d[5mC]*dT*kT*k[5mC]*k[5mC]) [Compound 1074213] | 55 % UTC
1075621 (kG*kA*kT*dT*dA*dA*d[5mC]*dA*dT*dT*dG*dA*dT*kA*k[5mC]*kT; antisense) [Compound 1075621] | 61 % UTC
1074149 (antisense kG*k[5mC]*k[5mC]*dG*dA*dG*dG*dT*dG*dG*dA*dG*dA*kA*kG*k[5mC]) [Compound 1074149] | 58 % UTC
1075941 (kA*kG*kT*d[5mC]*dA*dA*dT*dA*dG*d[5mC]*dA*dA*dT*k[5mC]*kA*k[5mC]; antisense) [Compound 1075941] | 11 % UTC

same assay, conditions: Table 20; Yap1 mRNA, percent of untreated control; 3-10-3 cEt gapmers targeting SEQ ID NO.: 1 and 2

Substance | YAP1 (% UTC)
1074182 (antisense kG*k[5mC]*k[5mC]*d[5mC]*dG*dG*dG*dA*dT*d[5mC]*d[5mC]*dA*dT*kG*kG*k[5mC]) [Compound 1074182] | 82 % UTC
1075046 (antisense kA*kA*kA*dA*dT*dT*dA*dG*dA*d[5mC]*dT*d[5mC]*d[5mC]*k[5mC]*k[5mC]*k[5mC]) [Compound 1075046] | 12 % UTC

same assay, conditions: Table 21; Yap1 mRNA, percent of untreated control; 3-10-3 cEt gapmers targeting SEQ ID NO.: 1 and 2

Substance | YAP1 (% UTC)
1074919 (antisense k[5mC]*kT*k[5mC]*dA*dA*dG*dT*dT*dA*d[5mC]*dA*dT*d[5mC]*k[5mC]*k[5mC]*kG) [Compound 1074919] | 48 % UTC
1076199 (kT*kA*kT*d[5mC]*dA*dA*dA*dA*dG*dT*d[5mC]*d[5mC]*dA*kT*k[5mC]*k[5mC]; antisense) [Compound 1076199] | 37 % UTC
1074599 (antisense kG*k[5mC]*kT*dA*dA*d[5mC]*dT*d[5mC]*dA*dA*dA*dA*d[5mC]*k[5mC]*kT*kT) [Compound 1074599] | 12 % UTC
1074855 (antisense kG*kT*kG*d[5mC]*dA*dT*dT*dA*dA*dA*dG*dA*dA*kT*kT*k[5mC]) [Compound 1074855] | 29 % UTC

same assay, conditions: Table 22; Yap1 mRNA as percent of untreated control; 3-10-3 cEt gapmers; single dose

Substance | YAP1 (% UTC)
1075848 (kG*kA*kT*dT*dA*d[5mC]*dA*dA*dT*dG*dG*dG*d[5mC]*kA*kG*kT; antisense) [Compound 1075848] | 9 % UTC
1075816 (kT*kA*kG*dT*dA*dT*dA*dA*dA*dG*d[5mC]*dA*dG*kG*kG*k[5mC]; antisense) [Compound 1075816] | 7 % UTC
1075048 (antisense kG*kT*kA*dA*dA*dA*dT*dT*dA*dG*dA*d[5mC]*dT*k[5mC]*k[5mC]*k[5mC]) [Compound 1075048] | 4 % UTC

same assay, conditions: Table 23; Yap1 mRNA as percent of untreated control; 3-10-3 cEt gapmers; single dose

Substance | YAP1 (% UTC)
1076169 (k[5mC]*kT*kA*d[5mC]*dT*dA*dT*dA*dT*d[5mC]*dT*dT*dT*kG*kG*kG; antisense) [Compound 1076169] | 10 % UTC
1074665 (antisense kT*kT*kG*d[5mC]*dA*dT*dT*d[5mC]*dT*dA*dG*dG*dT*kA*kG*kA) [Compound 1074665] | 17 % UTC
1075017 (antisense k[5mC]*kT*kT*dA*dA*dA*dG*dT*dG*dA*dT*dA*d[5mC]*kA*k[5mC]*k[5mC]) [Compound 1075017] | 19 % UTC
1076041 (kG*kT*kT*dA*dA*dA*dG*dA*dG*dT*dG*dG*dA*kA*kA*kT; antisense) [Compound 1076041] | 47 % UTC
1076201 (k[5mC]*kT*kA*dA*dA*dA*dA*dG*dA*d[5mC]*dA*dG*dG*kG*k[5mC]*k[5mC]; antisense) [Compound 1076201] | 99 % UTC

same assay, conditions: Table 24; Yap1 mRNA as percent of untreated control; 3-10-3 cEt gapmers targeting SEQ ID NO.: 1, and 2

Substance | YAP1 (% UTC)
1076074 (k[5mC]*kT*kA*dA*dT*dT*dA*dG*d[5mC]*dT*dT*dT*d[5mC]*kA*kG*k[5mC]; antisense) [Compound 1076074] | 92 % UTC
1074250 (antisense k[5mC]*kT*kG*dA*dT*d[5mC]*dG*dA*dT*dG*dT*dG*dA*kT*kT*kT) [Compound 1074250] | 6 % UTC
1074858 (antisense kA*kA*k[5mC]*dA*dT*dT*dG*dG*dT*dA*d[5mC]*dT*dA*kT*kA*kT) [Compound 1074858] | 23 % UTC
1076234 (k[5mC]*k[5mC]*kT*dT*dA*dA*dT*dA*dT*dA*dT*d[5mC]*d[5mC]*kA*k[5mC]*kA; antisense) [Compound 1076234] | 24 % UTC
1075274 (antisense kA*kA*kT*dA*dA*dT*d[5mC]*d[5mC]*dA*dG*d[5mC]*d[5mC]*dT*kA*kG*kG) [Compound 1075274] | 86 % UTC
1074986 (antisense k[5mC]*kT*kA*d[5mC]*dT*dG*dT*dA*dA*dT*d[5mC]*dA*d[5mC]*k[5mC]*kT*kT) [Compound 1074986] | 78 % UTC
1075722 (kG*kT*kT*dA*dA*dA*dT*dA*d[5mC]*d[5mC]*dT*dT*d[5mC]*kT*kA*kG; antisense) [Compound 1075722] | 88 % UTC

same assay, conditions: Table 25; Yap1 mRNA as percent of untreated control; 3-10-3 cEt gapmers targeting SEQ ID NO.: 1, and 2

Substance | YAP1 (% UTC)
1075435 (antisense k[5mC]*kT*kT*dA*dA*dA*d[5mC]*dG*dA*dT*dA*dA*dA*kG*kT*kA) [Compound 1075435] | 93 % UTC

same assay, conditions: Table 32; Yap1 mRNA, percent of untreated control; 3-10-3 cEt gapmers targeting SEQ ID NO.: 1, and 2

Substance | YAP1 (% UTC)
1076018 (kA*k[5mC]*kT*dA*dA*dT*dA*dG*dG*dA*dT*dG*dG*kA*kT*kT; antisense) [compound 1076018] | 15 % UTC

same assay, conditions: Yap1 mRNA as percent of untreated control; A-431 cells; 3-10-3 cEt gapmers targeting SEQ ID NO.: 1, and 2; Table 30

Substance | YAP1 (% UTC)
1075632 (antisense kT*k[5mC]*k[5mC]*d[5mC]*dT*dA*dT*dA*dA*d[5mC]*d[5mC]*dA*dA*kA*kT*kG) [compound 1075632] | 95 % UTC
1074992 (antisense k[5mC]*kA*kA*dT*dT*dA*dT*dT*dT*dG*dA*d[5mC]*dT*k[5mC]*k[5mC]*k[5mC]) [compound 1074992] | 63 % UTC
1075184 (k[5mC]*kA*kA*dG*dA*dA*d[5mC]*dA*d[5mC]*dT*dG*dG*dT*kA*kT*kT; antisense) [compound 1075184] | 67 % UTC

same assay, conditions: Yap1 mRNA as percent of untreated control; A-431 cells; 3-10-3 cEt gapmers targeting SEQ ID NO.: 1, and 2; Table 31

Substance | YAP1 (% UTC)
1075537 (k[5mC]*kT*kT*dT*dA*dA*dT*dT*dA*d[5mC]*d[5mC]*d[5mC]*dA*kA*kG*kG; antisense) [compound 1075537] | 82 % UTC
1074161 (kG*kG*k[5mC]*dG*dA*dG*d[5mC]*dG*dA*dG*dG*dG*d[5mC]*kT*kA*k[5mC]; antisense) [compound 1074161] | 98 % UTC
1075697 (kA*kA*kT*dA*dA*dT*d[5mC]*d[5mC]*dA*dT*dG*d[5mC]*dT*kT*kG*k[5mC]; antisense) [compound 1075697] | 16 % UTC
